For 14 compounds, inhibition results are on record in ChEMBL document CHEMBL1154875, “Pharmacophoric model building for antitubercular activity of the individual Schiff bases of small combinatorial library” (2010).

The experiment relates to Mycobacterium tuberculosis. Briefly: Antimicrobial activity against Mycobacterium tuberculosis H37Rv ATCC 27294 at 6.25 ug/ml after 24 hrs by Microplate Almar blue assay. Format: functional. Particulars: H37Rv ATCC 27294, 24 h.
Broadly, the inhibition is the percentage by which the read-out fell short of the control. A high value points to a response far below the control. In turn, `C/C(=N\NC(=O)c1ccncc1)c1ccc([N+](=O)[O-])cc1` had an inhibition at 6.25 µg/mL of 99%.

`O=C(NN/C=C/c1ccccc1)c1cc(/C=C\c2ccco2)on1`: the inhibition at 6.25 µg/mL amounted to 80%.

`O=C(N/N=C/c1ccc([N+](=O)[O-])cc1)c1ccco1` yielded an inhibition at 6.25 µg/mL of 35%.

`CC(=O)OC(O/C(C)=N/NC(=O)c1ccncc1)c1ccc([N+](=O)[O-])o1` (centres undefined) returned an inhibition at 6.25 µg/mL of 84%.

Consider `C/C(=N/NC(=O)c1cc(/C=C\c2ccco2)on1)c1ccc([N+](=O)[O-])cc1`, for which the inhibition at 6.25 µg/mL turned out to be 66%.

For the compound `C/C(=N/NC(=O)c1ccco1)c1ccc([N+](=O)[O-])cc1`, at 6.25 µg/mL the inhibition was 62%.

Turning to `CC(=O)OC(O/C(C)=N/NC(=O)c1cc(/C=C\c2ccco2)on1)c1ccc([N+](=O)[O-])o1` (centres undefined), at 6.25 µg/mL the inhibition was 59%.

`O=C(NN/C=C/c1ccccc1)c1ccncc1` registered an inhibition at 6.25 µg/mL of 54%.

For the compound `O=C1Nc2ccccc2/C1=N\NC(=O)c1ccco1`, testing at 6.25 µg/mL gave an inhibition of 41%.

In the case of `O=C1Nc2ccccc2/C1=N\NC(=O)c1cc(/C=C\c2ccco2)on1`, the inhibition at 6.25 µg/mL was found to be 39%.

`O=C(N/N=C/c1ccc([N+](=O)[O-])cc1)c1cc(/C=C\c2ccco2)on1`: the inhibition at 6.25 µg/mL was found to be 37%.

`CC(=O)OC(O/C(C)=N/NC(=O)c1ccco1)c1ccc([N+](=O)[O-])o1` (centres undefined) returned an inhibition at 6.25 µg/mL of 99%.

In the case of `O=C1Nc2ccccc2/C1=N\NC(=O)c1cccnc1`, at 6.25 µg/mL the inhibition was 57%.

Consider `O=C(N/N=C/c1ccccc1)c1ccncc1` [N'-BENZYLIDENE ISONICOTINOHYDRAZIDE], for which the inhibition at 6.25 µg/mL came out at 51%.
